The term inhibition denotes the change of the read-out against control, counted positive when it falls. High values mean strong suppression, low ones little suppression.

The target in the test is T1, HIPK4 (Homo sapiens, UniProt Q8NE63).
T1 construct: purchased Thermo Fisher Scientific (Life Technologies) SelectScreen
Briefly: SelectScreen Z'LYTE. It counts as biochemical. The gist of the method: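 NU5455 was profiled across the SelectScreen Broad panel of kinase activity and binding assays. Z'LYTE reactions such as CSF1R ran at apparent Km ATP, while the Adapta CAMK1 assay used ATP listed as 10. Values are given as percent.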

T1 sequence (Q8NE63 whole entry): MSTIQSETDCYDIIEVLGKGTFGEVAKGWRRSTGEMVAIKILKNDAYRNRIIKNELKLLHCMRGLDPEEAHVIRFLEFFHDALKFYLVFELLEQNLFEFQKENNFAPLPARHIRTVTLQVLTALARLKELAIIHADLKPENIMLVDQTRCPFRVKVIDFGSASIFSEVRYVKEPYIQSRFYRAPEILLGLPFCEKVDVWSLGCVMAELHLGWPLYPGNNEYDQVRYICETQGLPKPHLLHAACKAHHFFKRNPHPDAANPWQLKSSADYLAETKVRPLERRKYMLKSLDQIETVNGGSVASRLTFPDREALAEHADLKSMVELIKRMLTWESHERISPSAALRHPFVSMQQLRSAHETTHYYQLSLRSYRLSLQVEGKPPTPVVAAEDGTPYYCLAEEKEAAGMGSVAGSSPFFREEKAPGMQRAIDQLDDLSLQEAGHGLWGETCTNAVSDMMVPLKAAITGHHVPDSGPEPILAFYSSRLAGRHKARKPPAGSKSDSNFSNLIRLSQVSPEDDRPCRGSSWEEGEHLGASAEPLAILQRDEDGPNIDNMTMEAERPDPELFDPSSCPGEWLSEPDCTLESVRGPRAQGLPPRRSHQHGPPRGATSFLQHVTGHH

`CN(C(=O)CN1CCOCC1)c1ccc2sc3c(-c4cccc5c(=O)cc(N6CC7CCC(C6)O7)oc45)cccc3c2c1` [NU5455]: the inhibition at 1 µM came out at 0.9%.
